One assay addresses human ADAMTS4 (Homo sapiens (Human), UniProt O75173). Description: hADAMTS-4 TBIS-1 cleavage assay, Protocol 2. Format: biochemical.
A further assay deals with human ADAMTS-5 (Homo sapiens (Human), UniProt Q9UNA0). The experiment in a line: hADAMTS-5 TBIS-1 cleavage assay, Protocol 3. Format: biochemical. Conditions: 90 min at 37° C., read-out: hADAMTS-5 potency IC50.
The target in another assay is human ADAMTS6 (Homo sapiens (Human), UniProt Q9UKP5). The experiment in a line: hADAMTS-6 fluorescent based protease assay (520 MMP FRET substrate XII). Format: biochemical. The note with it: 37° C. for 2 h; read-out: hADAMTS-6 potency IC50. As to the method:
The IC50 value for test compounds can be determined in a fluorescent based protease assay.
The substrate contains sequence Arg-Pro-Lys-Pro-Tyr-Ala-Nva-Trp-Met-Lys (SEQ ID NO: 7) with attached a fluorescent probe and a quencher. Without ADAMTS6, the emission of the probe is quenched. If the substrate is cleaved by ADAMTS6, the emission of the probe is not quenched anymore. Inhibition of ADAMTS6 activity, will result in a decrease of the signal.
To perform the assay, 4 μL of a dilution series of compound in water, starting from 20 μM highest concentration, ⅕ dilution, is added to the wells. 2 ng ADAMTS6 enzyme is diluted in 25 mM Tris pH8.0, 0.05% CHAPS, 2.5 mM CaCl2 in a total volume of 26 μL (final concentration 0.73 nM). The reaction is started by addition of 10 μL of 1 μM 520 MMP FRET Substrate XII (final concentration, diluted in same buffer as described above) and the mixture is incubated at 37° C. for 2 h. […] After this incubation, cleavage of the substrate is measured using the Envision (Perkin Elmer, exc485/em530).

For the next assay, the target named is human MMP13 (Homo sapiens (Human), UniProt P45452). Description: hMMP13 assay, Protocol 1 (390 MMP FRET Substrate I, Chemicon enzyme). Format: biochemical. Conditions: Protocol 1, human MMP13 (Chemicon), read-out: hMMP-13 potency IC50. As to the method:
Human MMP13 is preactivated by incubated the enzyme in the same buffer complemented with 1 mM freshly prepared p-Aminophenylmercuric acetate (AMPA) for 1 h at 37° C.

For another assay, the target named is human TACE (Homo sapiens (Human), UniProt P78536). Description: biochemical.
Where [1] appears, read: Protocol 2, 180 min at 37° C., read-out: ADAMTS4 potency IC50.

Read-outs that look alike come from different tables or passages of the source.

Sequence of human ADAMTS-5 (Q9UNA0 262-930): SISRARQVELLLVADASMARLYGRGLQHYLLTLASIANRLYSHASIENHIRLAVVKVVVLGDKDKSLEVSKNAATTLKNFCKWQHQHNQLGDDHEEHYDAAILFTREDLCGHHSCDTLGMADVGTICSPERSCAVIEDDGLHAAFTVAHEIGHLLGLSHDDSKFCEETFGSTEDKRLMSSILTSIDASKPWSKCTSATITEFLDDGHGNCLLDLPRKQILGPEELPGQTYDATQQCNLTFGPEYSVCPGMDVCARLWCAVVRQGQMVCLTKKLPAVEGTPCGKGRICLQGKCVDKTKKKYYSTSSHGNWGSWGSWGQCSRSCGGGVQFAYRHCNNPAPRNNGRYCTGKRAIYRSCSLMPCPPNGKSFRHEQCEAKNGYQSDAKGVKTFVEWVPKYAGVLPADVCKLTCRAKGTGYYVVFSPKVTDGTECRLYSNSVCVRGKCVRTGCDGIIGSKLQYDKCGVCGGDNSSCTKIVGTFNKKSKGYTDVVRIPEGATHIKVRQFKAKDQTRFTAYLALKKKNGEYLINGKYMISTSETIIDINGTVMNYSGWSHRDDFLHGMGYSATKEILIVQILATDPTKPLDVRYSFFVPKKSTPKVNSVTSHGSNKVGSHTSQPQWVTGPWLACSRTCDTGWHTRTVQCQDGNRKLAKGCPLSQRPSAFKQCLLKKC
Sequence of human ADAMTS6 (Q9UKP5 other isoform, or with tags, fused parts or gaps): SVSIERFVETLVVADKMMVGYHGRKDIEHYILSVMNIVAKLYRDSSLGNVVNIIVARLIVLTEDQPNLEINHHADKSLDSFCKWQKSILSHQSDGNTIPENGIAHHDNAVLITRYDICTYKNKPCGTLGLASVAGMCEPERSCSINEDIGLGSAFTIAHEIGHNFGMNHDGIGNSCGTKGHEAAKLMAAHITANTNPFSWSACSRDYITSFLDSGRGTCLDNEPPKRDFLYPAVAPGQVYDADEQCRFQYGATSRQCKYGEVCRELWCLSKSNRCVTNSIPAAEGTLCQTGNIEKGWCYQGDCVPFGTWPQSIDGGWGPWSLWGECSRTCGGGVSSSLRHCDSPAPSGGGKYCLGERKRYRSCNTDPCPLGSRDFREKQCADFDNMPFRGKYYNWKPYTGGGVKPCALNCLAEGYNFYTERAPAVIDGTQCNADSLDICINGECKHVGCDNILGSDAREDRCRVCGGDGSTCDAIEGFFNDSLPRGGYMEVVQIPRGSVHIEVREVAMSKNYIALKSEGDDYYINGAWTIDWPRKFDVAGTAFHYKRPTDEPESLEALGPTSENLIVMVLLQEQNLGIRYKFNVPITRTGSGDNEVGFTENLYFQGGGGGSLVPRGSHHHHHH
Sequence of human TACE (P78536 215-671): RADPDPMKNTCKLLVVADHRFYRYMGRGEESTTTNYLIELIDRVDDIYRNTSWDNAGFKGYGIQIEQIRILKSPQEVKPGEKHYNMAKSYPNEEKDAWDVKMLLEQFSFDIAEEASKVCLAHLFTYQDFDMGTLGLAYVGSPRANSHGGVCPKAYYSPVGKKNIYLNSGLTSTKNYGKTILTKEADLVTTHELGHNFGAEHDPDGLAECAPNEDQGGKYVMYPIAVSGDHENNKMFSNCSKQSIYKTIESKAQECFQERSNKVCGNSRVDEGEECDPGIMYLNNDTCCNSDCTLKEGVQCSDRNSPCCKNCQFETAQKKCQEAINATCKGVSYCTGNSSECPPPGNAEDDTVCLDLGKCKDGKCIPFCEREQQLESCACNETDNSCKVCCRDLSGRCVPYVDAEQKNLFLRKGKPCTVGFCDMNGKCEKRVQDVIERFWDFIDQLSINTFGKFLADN
Sequence of human ADAMTS4 (O75173 213-837): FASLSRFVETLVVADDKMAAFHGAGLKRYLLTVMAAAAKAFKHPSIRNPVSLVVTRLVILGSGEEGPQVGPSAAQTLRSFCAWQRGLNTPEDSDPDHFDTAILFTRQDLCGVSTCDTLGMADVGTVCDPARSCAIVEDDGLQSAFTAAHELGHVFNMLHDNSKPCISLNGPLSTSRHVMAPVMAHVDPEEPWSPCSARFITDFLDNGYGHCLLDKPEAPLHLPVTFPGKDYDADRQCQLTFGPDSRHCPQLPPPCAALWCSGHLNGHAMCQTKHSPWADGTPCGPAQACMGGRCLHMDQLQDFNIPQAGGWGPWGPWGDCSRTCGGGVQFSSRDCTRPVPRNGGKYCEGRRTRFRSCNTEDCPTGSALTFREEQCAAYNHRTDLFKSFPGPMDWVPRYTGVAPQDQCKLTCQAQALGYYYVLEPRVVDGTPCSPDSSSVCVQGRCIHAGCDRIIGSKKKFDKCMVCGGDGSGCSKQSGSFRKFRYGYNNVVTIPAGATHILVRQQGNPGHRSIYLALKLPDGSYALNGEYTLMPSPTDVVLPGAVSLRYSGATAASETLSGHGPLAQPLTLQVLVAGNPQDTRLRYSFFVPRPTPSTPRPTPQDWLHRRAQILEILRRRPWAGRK
Protocol for human ADAMTS-5: The reaction is initiated by adding to the assay plate TBIS-1 (10 μL, 4.5 μM, Anaspec) in the same buffer.
Finally, the fluorescence is read on the Envision (Perkin Elmer) after an incubation of 90 min at 37° C. (Excitation 485 nm, emission 530).
Protocol for human TACE: Finally, the fluorescence is read on the Envision (Perkin Elmer) after an incubation of 75 min at room temperature (Excitation 485 nm, Emission 530).

Turning to `COCC1(CC(C)C(=O)N2CCN(c3cc(F)c(F)c(OC)c3)[C@@H](C)C2)NC(=O)NC1=O` (mixture of isomers) [Cpd 46, 5-[3-[(3S)-4-(3,4-difluoro-5-methoxy-phenyl)-3-methyl-piperazin-1-yl]-2-methyl-3-oxo-propyl]-5-(methoxymethyl)imidazolidine-2,4-dione], the IC50 against human ADAMTS4 is 25 to 50 nM; at human ADAMTS-5, 25 to 50 nM; at human ADAMTS6 it was 0.001 to 25 nM; on human MMP13, more than 100 nM; against human TACE it was more than 100 nM.

For `COc1cc(N2CCN(C(=O)[C@@H](C)C[C@@]3(c4ccccn4)NC(=O)NC3=O)C[C@@H]2C)cc(F)c1F` (stereo in doubt) [Cpd 49, 5-[3-[(3 S)-4-(3,4-difluoro-5-methoxy-phenyl)-3-methyl-piperazin-1-yl]-2-methyl-3-oxo-propyl]-5-(2-pyridyl)imidazolidine-2,4-dione], the IC50 on human ADAMTS4 was 50 to 100 nM; at human ADAMTS-5, 25 to 50 nM; on human ADAMTS6, 0.001 to 25 nM; against human TACE, more than 100 nM.

With `COc1cc(F)cc(N2CCN(C(=O)CC[C@@]3(C)NC(=O)NC3=O)CC2)c1` [Cpd 19, (R)-5-[3-[4-(3-fluoro-5-methoxy-phenyl)piperazin-1-yl]-3-oxo-propyl]-5-methyl-imidazolidine-2,4-dione], the IC50 was more than 100 nM on human ADAMTS4 (setting [1]); more than 100 nM at human ADAMTS-5; 50 to 100 nM at human ADAMTS6; more than 100 nM at human MMP13; more than 100 nM on human TACE.

Regarding `COc1cc(N2CCN(C(=O)CC[C@@]3(C)NC(=O)NC3=O)CC2)cc(F)c1F` [Cpd 20, (R)-5-[3-[4-(3,4-difluoro-5-methoxy-phenyl)piperazin-1-yl]-3-oxo-propyl]-5-methyl-imidazolidine-2,4-dione], the IC50 was more than 100 nM at human ADAMTS4 (setting [1]); more than 100 nM on human ADAMTS-5; 0.001 to 25 nM at human ADAMTS6; more than 100 nM on human MMP13; more than 100 nM on human TACE.

Consider `COc1cncc(N2CCN(C(=O)CCC3(C4CC4)NC(=O)NC3=O)C[C@@H]2C)c1` (stereo partly drawn) [Cpd 60, 5-cyclopropyl-5-[3-[(3S)-4-(5-methoxy-3-pyridyl)-3-methyl-piperazin-1-yl]-3-oxo-propyl]imidazolidine-2,4-dione], for which the IC50 on human ADAMTS4 (setting [1]), at human ADAMTS-5, on human ADAMTS6 and against human TACE was more than 100 nM each time.

Regarding `COc1cc(N2CCN(C(=O)CC[C@@]3(C)NC(=O)NC3=O)C[C@@H]2C)c(C)cc1F` [Cpd 66, (5R)-5-[3-[(3S)-4-(4-fluoro-5-methoxy-2-methyl-phenyl)-3-methyl-piperazin-1-yl]-3-oxo-propyl]-5-methyl-imidazolidine-2,4-dione], the IC50 on human ADAMTS-5 was more than 100 nM; at human ADAMTS6 it was 50 to 100 nM; at human TACE, more than 100 nM.

Take `COc1c(Cl)cccc1N1CCN(C(=O)CC[C@@]2(C)NC(=O)NC2=O)C[C@@H]1C` [Cpd 69, (5R)-5-[3-[(3 S)-4-(3-chloro-2-methoxy-phenyl)-3-methyl-piperazin-1-yl]-3-oxo-propyl]-5-methyl-imidazolidine-2,4-dione]: the IC50 on human ADAMTS-5, on human ADAMTS6 and against human TACE was more than 100 nM throughout.

As for `CCc1cccc(N2CCN(C(=O)CC[C@@]3(C)NC(=O)NC3=O)CC2)c1` [Cpd 70, (5R)-5-[3-[4-(3-ethylphenyl)piperazin-1-yl]-3-oxo-propyl]-5-methyl-imidazolidine-2,4-dione], the IC50 at human ADAMTS-5, on human ADAMTS6 and on human TACE was more than 100 nM in each case.

Regarding `COc1cc(Cl)ccc1N1CCN(C(=O)CC[C@@]2(C)NC(=O)NC2=O)CC1` [Cpd 73, (5R)-5-[3-[4-(4-chloro-2-methoxy-phenyl)piperazin-1-yl]-3-oxo-propyl]-5-methyl-imidazolidine-2,4-dione], the IC50 at human ADAMTS-5, at human ADAMTS6 and against human TACE was more than 100 nM throughout.

Turning to `COc1cc(Cl)ccc1N1CCN(C(=O)CC[C@@]2(C)NC(=O)NC2=O)C[C@@H]1C` [Cpd 76, (5R)-5-[3-[(3 S)-4-(4-chloro-2-methoxy-phenyl)-3-methyl-piperazin-1-yl]-3-oxo-propyl]-5-methyl-imidazolidine-2,4-dione], the IC50 on human ADAMTS-5, on human ADAMTS6 and at human TACE was more than 100 nM in each case.

For `COc1cc(F)ccc1N1CCN(C(=O)CC[C@@]2(C)NC(=O)NC2=O)CC1` [Cpd 78, (5R)-5-[3-[4-(4-fluoro-2-methoxy-phenyl)piperazin-1-yl]-3-oxo-propyl]-5-methyl-imidazolidine-2,4-dione], the IC50 on human ADAMTS-5, at human ADAMTS6 and against human TACE was more than 100 nM each time.

As to `COc1ccc(Cl)cc1N1CCN(C(=O)CC[C@@]2(C)NC(=O)NC2=O)C[C@@H]1C` [Cpd 91, (5R)-5-[3-[(3 S)-4-(5-chloro-2-methoxy-phenyl)-3-methyl-piperazin-1-yl]-3-oxo-propyl]-5-methyl-imidazolidine-2,4-dione], the IC50 at human ADAMTS-5, at human ADAMTS6 and at human TACE was more than 100 nM throughout.

`COc1cc(Cl)c(Cl)cc1N1CCN(C(=O)CC[C@@]2(C)NC(=O)NC2=O)CC1` [Cpd 94, (5R)-5-[3-[4-(4,5-dichloro-2-methoxy-phenyl)piperazin-1-yl]-3-oxo-propyl]-5-methyl-imidazolidine-2,4-dione]: the IC50 at human ADAMTS-5 was more than 100 nM; at human ADAMTS6, 0.001 to 25 nM; at human TACE, more than 100 nM.

As to `COc1cc(Cl)c(C)cc1N1CCN(C(=O)CC[C@@]2(C)NC(=O)NC2=O)C[C@@H]1C` [Cpd 95, (5R)-5-[3-[(3S)-4-(4-chloro-2-methoxy-5-methyl-phenyl)-3-methyl-piperazin-1-yl]-3-oxo-propyl]-5-methyl-imidazolidine-2,4-dione], the IC50 was more than 100 nM on human ADAMTS-5, 0.001 to 25 nM at human ADAMTS6 and more than 100 nM on human TACE.

Turning to `CCOc1cc(N2CCN(C(=O)CC[C@@]3(C)NC(=O)NC3=O)C[C@@H]2C)ccc1Cl` [Cpd 111, (5R)-5-[3-[(3 S)-4-(4-chloro-3-ethoxy-phenyl)-3-methyl-piperazin-1-yl]-3-oxo-propyl]-5-methyl-imidazolidine-2,4-dione], the IC50 at human ADAMTS-5 is more than 100 nM; at human ADAMTS6, 0.001 to 25 nM.

In the case of `COc1cc(F)c(F)cc1N1CCN(C(=O)CC[C@@]2(C)NC(=O)NC2=O)C[C@@H]1C` [Cpd 113, (5R)-5-[3-[(3 S)-4-(4,5-difluoro-2-methoxy-phenyl)-3-methyl-piperazin-1-yl]-3-oxo-propyl]-5-methyl-imidazolidine-2,4-dione], the IC50 on human ADAMTS-5 and on human ADAMTS6 was more than 100 nM in each case.

As for `COc1cc(N2CCN(C(=O)CC[C@H]3NC(=O)NC3=O)C[C@H]2C)cc(F)c1F` [Cpd 127, (5R)-5-[3-[(3R)-4-(3,4-difluoro-5-methoxy-phenyl)-3-methyl-piperazin-1-yl]-3-oxo-propyl]imidazolidine-2,4-dione], the IC50 on human ADAMTS-5 and at human ADAMTS6 was more than 100 nM in each case.

Regarding `COc1ccc(C)c(N2CCN(C(=O)CC[C@H]3NC(=O)NC3=O)CC2)c1` [Cpd 136, (5R)-5-[3-[4-(5-methoxy-2-methyl-phenyl)piperazin-1-yl]-3-oxo-propyl]imidazolidine-2,4-dione], the IC50 on human ADAMTS-5 and at human ADAMTS6 was more than 100 nM each time.

Take `COc1cccc(N2CCN(C(=O)CC[C@H]3NC(=O)NC3=O)CC2)c1C` [Cpd 137, (5R)-5-[3-[4-(3-methoxy-2-methyl-phenyl)piperazin-1-yl]-3-oxo-propyl]imidazolidine-2,4-dione]: the IC50 on human ADAMTS-5 and at human ADAMTS6 was more than 100 nM in each case.

Take `COc1ccc(C)c(N2CCN(C(=O)CC[C@H]3NC(=O)NC3=O)C[C@@H]2C)c1` [Cpd 140, (5R)-5-[3-[(3 S)-4-(5-methoxy-2-methyl-phenyl)-3-methyl-piperazin-1-yl]-3-oxo-propyl]imidazolidine-2,4-dione]: the IC50 at human ADAMTS-5 and at human ADAMTS6 was more than 100 nM throughout.

Turning to `CCOc1cc(N2CCN(C(=O)CC[C@H]3NC(=O)NC3=O)CC2)cc(OC)c1Cl` [Cpd 149, (5R)-5-[3-[4-(4-chloro-3-ethoxy-5-methoxy-phenyl)piperazin-1-yl]-3-oxo-propyl]imidazolidine-2,4-dione], the IC50 on human ADAMTS-5 was more than 100 nM; at human ADAMTS6 it was 50 to 100 nM; against human TACE, more than 100 nM.

With `COc1cc(N2CCN(C(=O)CC[C@H]3NC(=O)NC3=O)CC2)cc(OC)c1F` [Cpd 151, (5R)-5-[3-[4-(4-fluoro-3,5-dimethoxy-phenyl)piperazin-1-yl]-3-oxo-propyl]imidazolidine-2,4-dione], the IC50 on human ADAMTS-5 was more than 100 nM; on human ADAMTS6, 25 to 50 nM; at human TACE it was more than 100 nM.

What is called IC50 is the midpoint of a concentration-inhibition curve.

(Values after US10829478B2, “5-[3-[piperazin-1-yl]-3-oxo-propyl]-imidazolidine-2,4-dione derivatives as ADAMTS 4 and 5 inhibitors for treating e.g. osteoarthritis” (Galapagos NV, priority 2016, dated 2020).)
